Laboratory results published in patent publication US20240366661A1, “COMPOSITIONS FOR AND METHODS OF TREATING A SUBJECT HAVING INFLAMMATION” (The George Washington University, priority 2022, published 2024).
Entries after “also recorded” stand apart in the source; their conditions may differ.

Columns and labels:
[1] = tested on: murine bone marrow derived macrophages (BMDMs); assay: QRT-PCR of M2 markers in bone marrow derived macrophages pre-treated with HDAC11 inhibitor and polarized to M2; assay type: cell-based; conditions: inhibitor 5 μM pre-treatment overnight prior to M2 polarization
Experimental: (§1) Upon treatment with M-CSF, bone marrow-derived monocytes (BMDM) differentiate into naïve (M0) macrophages. In the case of peritoneal exudate macrophages (PEMs), naïve M0 macrophages are isolated from the peritoneal cavity. These M0 macrophages are pre-treated with HDAC11 inhibitor followed by polarization to M2 macrophages with IL4 and IL13 cytokines or other cytokine mix including but not limited to IL10 and TGF beta.
Next, HDAC11 inhibitors were evaluated for their ability to modulate the function of macrophages. […] These commercially available HDAC11 inhibitors were tested on macrophages in-vitro to identify their macrophage modulatory properties. Next, BMDMs were isolated and polarized towards M2 phenotype with HDAC11 inhibitor pre-treatment overnight.

[2] = target: T1, HDAC11 (Homo sapiens, UniProt Q96DB2); conditions: literature statement; cited from earlier work
T1 sequence (Q96DB2 1-347): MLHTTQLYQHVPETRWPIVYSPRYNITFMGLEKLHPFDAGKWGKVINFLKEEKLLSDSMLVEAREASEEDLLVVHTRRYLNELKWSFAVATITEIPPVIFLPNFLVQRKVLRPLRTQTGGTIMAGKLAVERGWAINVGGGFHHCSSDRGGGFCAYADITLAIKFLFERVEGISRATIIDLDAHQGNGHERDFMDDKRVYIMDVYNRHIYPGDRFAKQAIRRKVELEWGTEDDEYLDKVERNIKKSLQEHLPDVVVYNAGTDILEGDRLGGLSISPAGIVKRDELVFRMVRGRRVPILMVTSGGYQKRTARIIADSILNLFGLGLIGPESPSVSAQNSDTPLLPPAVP

[3] = tested on: peritoneal exudated macrophages (PEMs); assay: ELISA of IL-10 and TGFβ cytokines in peritoneal exudate macrophages treated with HDAC11 inhibitor; assay type: cell-based; conditions: dose-dependent
Excerpt: as §1, with “beta. […] A chromatin immunoprecipitation assay further confirmed that HDAC11 binded preferentially to the distal promoter region of IL10, and negatively regulated its gene expression (FIG. 1B). […] This confirmed that the HDAC11 inhibitor was highly specific, and that it could recapitulate the effect of HDAC11 genetic knock down.” for “beta.”
Therefore, HDAC11 inhibitor treated M2 macrophages as a cell therapy and or topical HDAC11 inhibitor application are excellent to treat inflammatory diseases.

With `CC1(C)c2cccc(C(=O)NO)c2CN1c1cnc(C(F)(F)F)cn1` [FT895] the Arg1 expression [1] was “did not affect”, the Fizz1 expression [1] was “further enhanced the expression of Fizz1” and the Mrc1 expression [1] was “did not affect”.

In the case of `CCCCCCCCCCCCCCCCNNC(=O)c1cccs1` [SIS17], the Arg1 expression [1] was “increased the expression of Arg1 and Mrc1”, the Fizz1 expression [1] was “further enhanced the expression of Fizz1” and the Mrc1 expression [1] was “increased the expression of Arg1 and Mrc1”. The “inhibition of HDAC11 (demyristoylation activity; potency and selectivity)” value [2] was “inhibit the demyristoylation activity of HDAC11 without inhibiting other HDACs”.

For `COc1ccccc1NC(=O)NCc1ccc(C(=O)NO)cc1` [elevenostat], the “expression of IL-10 cytokine” value [3] was “increased the expression of IL-10 and TGFβ cytokines in a dose-dependent manner; also recorded: dose dependent increase” and the “expression of TGFβ cytokine” value [3] was “increased the expression of IL-10 and TGFβ cytokines in a dose-dependent manner; also recorded: dose dependent increase”.
